We go through 2 compounds from PMC8213057, “Targeting ALK2: An Open Science Approach to Developing Therapeutics for the Treatment of Diffuse Intrinsic Pontine Glioma” (Journal of Medicinal Chemistry, 2020).

The target of data set [1] is CYP3A4-Testosterone.
Data set [2] can be described thus: mouse liver microsomal stability assay. Format: in vitro ADME. To be noted: male, CD-1, mouse, microsomes, pH 7.4, mouse liver microsomes, 60 min, 37 °C, read-out: MLM % Remaining at 1h. For orientation: Liver microsomes are a subcellular fraction often used to study metabolism.
Data set [3] deals with T1, DLK/MAP3K12 (Homo sapiens, UniProt Q12852).
T1 sequence (Q12852 1-859): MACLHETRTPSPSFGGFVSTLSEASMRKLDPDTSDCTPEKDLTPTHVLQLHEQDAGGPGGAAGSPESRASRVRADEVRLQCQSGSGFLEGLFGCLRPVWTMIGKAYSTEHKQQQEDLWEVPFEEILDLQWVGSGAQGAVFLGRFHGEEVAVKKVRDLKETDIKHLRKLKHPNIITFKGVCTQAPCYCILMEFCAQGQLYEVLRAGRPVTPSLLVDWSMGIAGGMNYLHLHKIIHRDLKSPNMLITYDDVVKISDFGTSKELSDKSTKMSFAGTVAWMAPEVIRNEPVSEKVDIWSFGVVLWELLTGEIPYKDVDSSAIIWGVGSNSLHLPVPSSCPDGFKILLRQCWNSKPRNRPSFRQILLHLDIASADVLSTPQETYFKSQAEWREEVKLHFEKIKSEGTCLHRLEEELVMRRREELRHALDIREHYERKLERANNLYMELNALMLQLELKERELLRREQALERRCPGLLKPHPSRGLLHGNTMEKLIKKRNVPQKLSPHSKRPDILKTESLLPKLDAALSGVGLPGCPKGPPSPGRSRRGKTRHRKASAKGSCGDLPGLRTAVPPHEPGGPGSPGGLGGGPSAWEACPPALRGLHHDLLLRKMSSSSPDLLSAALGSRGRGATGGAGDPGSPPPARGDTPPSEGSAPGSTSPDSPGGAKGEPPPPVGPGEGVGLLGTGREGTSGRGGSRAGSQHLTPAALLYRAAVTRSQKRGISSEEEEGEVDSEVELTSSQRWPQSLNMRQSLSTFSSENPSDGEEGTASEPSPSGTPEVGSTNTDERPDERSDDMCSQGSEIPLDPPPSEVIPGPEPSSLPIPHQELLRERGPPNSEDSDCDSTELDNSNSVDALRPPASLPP
To be noted: 1 μM; Run 1, Run 2.

Data set [4] concerns the target GSK3b (Homo sapiens, UniProt P49841). To be noted: 1 μM; Run 1, Run 2.
Data set [5] concerns the target JAK2 (Homo sapiens, UniProt O60674). The note with it: 1 μM; Run 1, Run 2.
The target of data set [6] is MLK2/MAP3K10 (Homo sapiens, UniProt Q02779). The note with it: 1 μM; Run 1, Run 2.
Data set [7] concerns the target WNK1 (Homo sapiens, UniProt Q9H4A3). The note with it: 1 μM; Run 1, Run 2.
The target in data set [8] is CK2a2 (Homo sapiens, UniProt P19784). The data set is described as follows: biochemical. To be noted: read-out: % enzyme activity, 1 μM; Run 1, Run 2.
Data set [9] has as its target T2, DYRK4 (Homo sapiens, UniProt Q9NR20).
T2 sequence (Q9NR20 1-520): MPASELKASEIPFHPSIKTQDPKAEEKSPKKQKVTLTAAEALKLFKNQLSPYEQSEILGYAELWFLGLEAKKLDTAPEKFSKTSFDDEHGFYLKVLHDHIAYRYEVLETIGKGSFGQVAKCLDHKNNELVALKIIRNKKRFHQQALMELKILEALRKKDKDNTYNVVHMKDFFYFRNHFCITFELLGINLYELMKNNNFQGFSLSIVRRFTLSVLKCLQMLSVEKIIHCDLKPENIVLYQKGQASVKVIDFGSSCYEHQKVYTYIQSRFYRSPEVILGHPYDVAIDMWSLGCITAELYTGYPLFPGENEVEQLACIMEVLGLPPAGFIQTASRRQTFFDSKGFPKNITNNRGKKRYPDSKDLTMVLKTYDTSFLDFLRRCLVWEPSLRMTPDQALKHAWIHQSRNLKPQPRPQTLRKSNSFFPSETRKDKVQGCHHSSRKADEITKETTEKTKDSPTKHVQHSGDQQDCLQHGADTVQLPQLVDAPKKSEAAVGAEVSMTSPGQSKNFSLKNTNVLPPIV
Description: biochemical. The note with it: read-out: % enzyme activity, 1 μM; Run 1, Run 2.

The target in data set [10] is GRK4 (Homo sapiens, UniProt P32298). The data set is described as follows: biochemical. To be noted: read-out: % enzyme activity, 1 μM; Run 1, Run 2.
The target of data set [11] is LRRK2 (Homo sapiens, UniProt Q5S007). Description: biochemical. To be noted: read-out: % enzyme activity, 1 μM; Run 1, Run 2.
For data set [12], the target named is PKCb1 (Homo sapiens, UniProt P05771). Description: biochemical. To be noted: read-out: % enzyme activity, 1 μM; Run 1, Run 2.
In data set [13] the target is T3, TNK1 (Homo sapiens, UniProt Q13470).
T3 sequence (Q13470 1-666): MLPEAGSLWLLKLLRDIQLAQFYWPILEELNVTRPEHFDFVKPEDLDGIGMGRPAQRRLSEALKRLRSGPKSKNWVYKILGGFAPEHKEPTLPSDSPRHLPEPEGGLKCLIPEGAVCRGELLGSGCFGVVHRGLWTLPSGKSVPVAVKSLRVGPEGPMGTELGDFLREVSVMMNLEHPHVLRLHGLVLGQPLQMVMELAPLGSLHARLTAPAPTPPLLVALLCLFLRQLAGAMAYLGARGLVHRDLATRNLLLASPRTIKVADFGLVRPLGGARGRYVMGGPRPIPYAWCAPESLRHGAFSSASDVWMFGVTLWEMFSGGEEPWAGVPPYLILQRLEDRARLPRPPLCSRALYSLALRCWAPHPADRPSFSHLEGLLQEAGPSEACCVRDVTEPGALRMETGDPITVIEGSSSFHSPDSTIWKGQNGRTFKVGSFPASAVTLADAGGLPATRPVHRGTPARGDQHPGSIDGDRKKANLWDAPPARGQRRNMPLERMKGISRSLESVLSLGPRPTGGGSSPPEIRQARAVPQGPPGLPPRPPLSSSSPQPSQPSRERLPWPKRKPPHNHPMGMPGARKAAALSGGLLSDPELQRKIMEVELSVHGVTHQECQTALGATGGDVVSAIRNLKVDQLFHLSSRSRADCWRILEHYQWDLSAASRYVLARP
Description: biochemical. The note with it: read-out: % enzyme activity, 1 μM; Run 1, Run 2.

Where only a bound is given, the exact number is not on record here.

Sequence of GSK3b (P49841 whole entry): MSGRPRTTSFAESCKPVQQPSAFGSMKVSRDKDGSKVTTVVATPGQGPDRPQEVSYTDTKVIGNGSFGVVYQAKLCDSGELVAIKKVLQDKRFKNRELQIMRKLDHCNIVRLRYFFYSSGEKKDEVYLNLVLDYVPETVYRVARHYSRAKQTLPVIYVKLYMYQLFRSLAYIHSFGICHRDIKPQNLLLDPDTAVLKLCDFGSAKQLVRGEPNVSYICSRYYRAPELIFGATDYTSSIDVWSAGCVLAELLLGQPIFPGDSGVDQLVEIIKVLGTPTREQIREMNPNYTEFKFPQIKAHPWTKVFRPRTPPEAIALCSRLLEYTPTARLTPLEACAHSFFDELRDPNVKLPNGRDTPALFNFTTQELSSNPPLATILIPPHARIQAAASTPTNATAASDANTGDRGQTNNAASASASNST
Sequence of WNK1 (Q9H4A3 whole entry, species assumed): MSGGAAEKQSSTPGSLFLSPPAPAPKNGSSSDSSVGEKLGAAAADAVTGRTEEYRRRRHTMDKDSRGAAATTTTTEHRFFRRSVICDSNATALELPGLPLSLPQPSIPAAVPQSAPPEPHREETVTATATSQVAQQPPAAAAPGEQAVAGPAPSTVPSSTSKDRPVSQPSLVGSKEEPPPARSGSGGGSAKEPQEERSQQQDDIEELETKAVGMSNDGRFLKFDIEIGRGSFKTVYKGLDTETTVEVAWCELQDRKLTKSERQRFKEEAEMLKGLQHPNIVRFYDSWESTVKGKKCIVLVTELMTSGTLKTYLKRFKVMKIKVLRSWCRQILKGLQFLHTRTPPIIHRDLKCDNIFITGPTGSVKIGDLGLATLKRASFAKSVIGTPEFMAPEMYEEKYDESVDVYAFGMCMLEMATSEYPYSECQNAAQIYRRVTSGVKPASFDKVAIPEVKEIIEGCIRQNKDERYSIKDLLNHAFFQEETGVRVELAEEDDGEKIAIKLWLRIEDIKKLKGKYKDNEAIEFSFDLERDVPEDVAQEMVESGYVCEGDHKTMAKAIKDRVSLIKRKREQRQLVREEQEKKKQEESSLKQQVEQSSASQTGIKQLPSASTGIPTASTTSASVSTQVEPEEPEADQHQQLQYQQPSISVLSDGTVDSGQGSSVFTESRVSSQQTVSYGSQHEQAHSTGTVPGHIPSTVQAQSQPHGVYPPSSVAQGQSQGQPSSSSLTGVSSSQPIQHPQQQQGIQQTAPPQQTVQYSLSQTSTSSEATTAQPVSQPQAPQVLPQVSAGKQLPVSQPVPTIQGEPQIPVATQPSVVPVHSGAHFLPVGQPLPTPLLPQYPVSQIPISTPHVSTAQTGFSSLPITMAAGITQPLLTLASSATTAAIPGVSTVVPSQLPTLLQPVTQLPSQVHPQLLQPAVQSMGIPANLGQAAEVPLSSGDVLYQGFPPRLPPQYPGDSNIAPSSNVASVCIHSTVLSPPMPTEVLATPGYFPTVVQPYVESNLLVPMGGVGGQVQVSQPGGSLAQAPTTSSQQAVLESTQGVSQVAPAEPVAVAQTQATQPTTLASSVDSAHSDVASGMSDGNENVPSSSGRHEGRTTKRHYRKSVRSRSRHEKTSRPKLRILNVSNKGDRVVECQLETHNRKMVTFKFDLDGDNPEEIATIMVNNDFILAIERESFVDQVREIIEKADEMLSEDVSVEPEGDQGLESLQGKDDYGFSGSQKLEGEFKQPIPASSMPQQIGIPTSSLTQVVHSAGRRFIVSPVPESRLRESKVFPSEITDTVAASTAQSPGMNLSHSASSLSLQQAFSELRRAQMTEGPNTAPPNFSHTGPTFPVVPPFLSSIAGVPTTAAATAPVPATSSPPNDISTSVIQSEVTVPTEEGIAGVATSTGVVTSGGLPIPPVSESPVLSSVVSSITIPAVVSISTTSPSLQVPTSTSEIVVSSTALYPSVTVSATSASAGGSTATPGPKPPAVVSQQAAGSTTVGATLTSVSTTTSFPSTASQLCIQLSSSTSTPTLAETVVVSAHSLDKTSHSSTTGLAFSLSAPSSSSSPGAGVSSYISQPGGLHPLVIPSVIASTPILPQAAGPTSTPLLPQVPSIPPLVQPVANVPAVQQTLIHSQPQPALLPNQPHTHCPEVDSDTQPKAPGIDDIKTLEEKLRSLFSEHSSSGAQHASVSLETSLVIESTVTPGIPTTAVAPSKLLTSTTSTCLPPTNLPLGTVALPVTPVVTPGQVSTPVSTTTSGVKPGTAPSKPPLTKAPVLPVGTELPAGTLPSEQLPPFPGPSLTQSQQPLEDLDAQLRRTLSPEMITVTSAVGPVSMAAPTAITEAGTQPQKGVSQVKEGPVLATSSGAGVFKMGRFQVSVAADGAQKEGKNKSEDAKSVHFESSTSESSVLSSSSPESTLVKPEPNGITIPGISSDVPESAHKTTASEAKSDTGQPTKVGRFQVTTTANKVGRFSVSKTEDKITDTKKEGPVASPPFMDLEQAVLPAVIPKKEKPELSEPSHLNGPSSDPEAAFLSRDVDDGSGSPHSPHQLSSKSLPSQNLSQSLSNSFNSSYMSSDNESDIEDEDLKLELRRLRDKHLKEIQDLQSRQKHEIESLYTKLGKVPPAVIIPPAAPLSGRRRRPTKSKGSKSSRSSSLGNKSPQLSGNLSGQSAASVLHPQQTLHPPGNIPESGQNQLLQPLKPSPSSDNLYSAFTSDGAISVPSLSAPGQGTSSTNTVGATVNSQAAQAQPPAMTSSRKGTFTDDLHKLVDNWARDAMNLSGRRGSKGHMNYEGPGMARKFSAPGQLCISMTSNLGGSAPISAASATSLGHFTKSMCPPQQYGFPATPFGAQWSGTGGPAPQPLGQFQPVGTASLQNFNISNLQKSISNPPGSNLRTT
Sequence of GRK4 (P32298 whole entry): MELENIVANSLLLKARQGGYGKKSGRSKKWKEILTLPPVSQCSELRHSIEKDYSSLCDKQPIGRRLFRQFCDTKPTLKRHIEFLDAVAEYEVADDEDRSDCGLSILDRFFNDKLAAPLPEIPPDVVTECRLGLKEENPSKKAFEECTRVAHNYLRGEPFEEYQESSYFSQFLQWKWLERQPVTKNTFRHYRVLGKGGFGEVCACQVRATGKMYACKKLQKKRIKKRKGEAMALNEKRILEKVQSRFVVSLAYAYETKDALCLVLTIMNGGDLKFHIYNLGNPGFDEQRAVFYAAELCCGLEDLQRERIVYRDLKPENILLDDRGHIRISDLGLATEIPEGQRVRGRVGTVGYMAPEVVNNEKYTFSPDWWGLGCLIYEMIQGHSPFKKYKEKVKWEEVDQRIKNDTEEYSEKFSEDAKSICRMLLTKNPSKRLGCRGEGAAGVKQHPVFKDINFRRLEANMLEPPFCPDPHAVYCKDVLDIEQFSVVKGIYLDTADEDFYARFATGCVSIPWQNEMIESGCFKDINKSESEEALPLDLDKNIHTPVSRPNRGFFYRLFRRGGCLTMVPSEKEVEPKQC
Sequence of PKCb1 (P05771 whole entry): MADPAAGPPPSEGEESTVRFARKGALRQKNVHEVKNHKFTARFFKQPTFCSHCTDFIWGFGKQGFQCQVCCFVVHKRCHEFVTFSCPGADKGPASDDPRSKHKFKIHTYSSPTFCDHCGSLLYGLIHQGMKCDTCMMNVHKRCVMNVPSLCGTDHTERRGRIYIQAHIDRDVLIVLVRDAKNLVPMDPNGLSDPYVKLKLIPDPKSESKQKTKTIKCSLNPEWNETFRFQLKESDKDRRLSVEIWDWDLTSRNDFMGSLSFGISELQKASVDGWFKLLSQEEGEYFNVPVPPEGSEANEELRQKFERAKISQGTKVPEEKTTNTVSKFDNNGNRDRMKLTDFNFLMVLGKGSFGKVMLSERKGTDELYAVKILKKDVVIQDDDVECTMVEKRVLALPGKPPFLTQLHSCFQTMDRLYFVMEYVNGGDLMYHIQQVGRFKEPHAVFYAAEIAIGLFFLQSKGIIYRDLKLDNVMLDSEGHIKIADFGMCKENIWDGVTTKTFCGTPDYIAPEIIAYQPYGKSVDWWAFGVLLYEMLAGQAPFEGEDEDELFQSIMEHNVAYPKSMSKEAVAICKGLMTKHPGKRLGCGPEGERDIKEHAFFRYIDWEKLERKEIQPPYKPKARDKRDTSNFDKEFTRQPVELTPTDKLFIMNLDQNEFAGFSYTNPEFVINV
Sequence of CK2a2 (P19784 whole entry): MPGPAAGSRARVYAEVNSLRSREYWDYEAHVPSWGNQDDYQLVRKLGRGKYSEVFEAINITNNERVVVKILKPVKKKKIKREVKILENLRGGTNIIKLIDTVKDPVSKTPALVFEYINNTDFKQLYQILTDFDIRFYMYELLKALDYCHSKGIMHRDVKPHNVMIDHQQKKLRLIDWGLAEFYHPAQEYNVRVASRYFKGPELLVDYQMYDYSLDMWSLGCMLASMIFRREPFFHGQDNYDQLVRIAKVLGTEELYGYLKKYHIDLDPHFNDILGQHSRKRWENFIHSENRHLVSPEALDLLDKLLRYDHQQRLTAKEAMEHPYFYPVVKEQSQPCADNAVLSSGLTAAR

Regarding `COc1cc(-c2cncc(-c3ccc(N4CCN(C)CC4)cc3)c2C)cc(F)c1C(N)=O` [Compound 26a, 2-Fluoro-6-methoxy-4-(4-methyl-5-(4-(4-methylpiperazin-1-yl)phenyl)pyridin-3-yl)benzamide], the CYP inhibition in data set [1] is greater than 50 µM. Further, in [2], the amount remaining at 1 h, 1 μM was found to be 54.6%. The “% enzyme activity” value in data set [3] amounted to 91.76%; in data set [4], 84.98%; in [5], 92.09%; in [6], 86.29%; in data set [7] it was 107.33%. Besides, the remaining activity at 1 µM in data set [8] was determined as 95.3%; in [9], 103%; in data set [10], 80.4%; in [11] it was 60.1%; in data set [12] it was 85.5%; in data set [13], 105%.

In data set [1], `COc1cc(-c2cncc(-c3ccc(N4C[C@@H](C)N(C)[C@@H](C)C4)cc3)c2C)cc(F)c1C(N)=O` [Compound 26c, 2-Fluoro-6-methoxy-4-(4-methyl-5-(4-((3R,5S)-3,4,5-trimethylpiperazin-1-yl)phenyl)pyridin-3-yl)benzamide] returned a CYP inhibition greater than 50 µM. For the same compound, the amount remaining at 1 h, 1 μM in [2] came to 48.7%. Further, the “% enzyme activity” value in [3] is recorded as 97.93%; in data set [4], 88.83%; in data set [5], 88.17%; in data set [6], 96.07%; in data set [7] it was 102.29%. In addition, the remaining activity at 1 µM stood at 101% in data set [8]; 101% in data set [9]; 97.1% in data set [10]; 78.3% in [11]; 85.3% in data set [12]; 98.6% in data set [13].

What is called share remaining is what is left of the initial amount, in per cent.
